Values after ≈ are worked out from the molar mass of the structure shown.
Tests used:
Format in all cases: cell-based
[1] = tested on: Candida tropicalis; assay: agar dilution assay (MIC) vs Candida tropicalis SC 9861; settings: Candida tropicalis S.C. No. 9861; F-4 agar; 10^3 CFU
Experimental: (§1) The following methodology was used to determine the minimum inhibitory concentration (hereinafter referred to as MIC) of the compounds of this invention against bacteria. The test organisms were grown in 20 ml of Antibiotic Assay Broth (Difco) by inoculating the broth (in tubes) with a loopful of the organism from a BHI (Difco) agar slant. The inoculated tubes were incubated at 37° C. for 18 to 24 hours. These cultures were assumed to contain 10^9 colony forming units (CFU) per ml. The cultures were diluted 1:100 to give a final inoculum level of 10^7 CFU; dilutions were made with Yeast Beef Broth (Difco). The test compounds were dissolved in an appropriate diluent at a concentration of 1,000 μg/ml. Two-fold dilutions were made in Yeast Beef Broth (Difco), resulting in a range from 1000 μg/ml to 0.5 μg/ml. A 1.5 ml portion of each dilution was placed into individual petri dishes to which 13.5 ml of K-10 agar was added. The composition of K-10 agar is
(§2) The final drug concentration in the agar ranged from 100 μg/ml to 0.05 μg/ml. Organism growth control plates containing agar only were prepared and inoculated before and after the test plates. […]
(§3) The plates were incubated at 37° C. for 18 hours and the MICs determined. […]

[2] = tested on: Streptococcus agalactiae; assay: agar dilution assay (MIC) vs Streptococcus agalactiae SC 9287; settings: Streptococcus agalactiae S.C. No. 9287; K-10 agar; 10^4 CFU; 37° C., 18 hours
Experimental: as §1, with “agar is The final drug concentration in the agar ranged from 100 μg/ml to 0.05 μg/ml. Organism growth control plates containing agar only were prepared and inoculated before and after the test plates. […] The plates were incubated at 37° C. for 18 hours and the MICs determined. […]” for “agar is”

[3] = tested on: Mycobacterium fortuitum; assay: agar dilution assay (MIC) vs Mycobacterium fortuitum SC 8571; settings: Mycolicibacterium fortuitum; Mycobacterium fortuitum S.C. No. 8571; K-10 agar; 10^4 CFU; 37° C., 18 hours
Experimental: as §1, with “agar is The final drug concentration in the agar ranged from 100 μg/ml to 0.05 μg/ml. Organism growth control plates containing agar only were prepared and inoculated before and after the test plates. […] The plates were incubated at 37° C. for 18 hours and the MICs determined. […]” for “agar is”

[4] = tested on: Escherichia coli; assay: agar dilution assay (MIC) vs Escherichia coli SC 10909; settings: Escherichia coli S.C. No. 10909; K-10 agar; 10^4 CFU; 37° C., 18 hours
Experimental: as §1, with “agar is The final drug concentration in the agar ranged from 100 μg/ml to 0.05 μg/ml. Organism growth control plates containing agar only were prepared and inoculated before and after the test plates. […] The plates were incubated at 37° C. for 18 hours and the MICs determined. […]” for “agar is”

[5] = tested on: Micrococcus luteus; assay: agar dilution assay (MIC) vs Micrococcus luteus SC 2495; settings: Micrococcus luteus S.C. No. 2495; K-10 agar; 10^4 CFU; 37° C., 18 hours
Experimental: as §1, with “agar is The final drug concentration in the agar ranged from 100 μg/ml to 0.05 μg/ml. Organism growth control plates containing agar only were prepared and inoculated before and after the test plates. […] The plates were incubated at 37° C. for 18 hours and the MICs determined. […]” for “agar is”

[6] = tested on: Candida tropicalis; assay: agar dilution assay (MIC) vs Candida tropicalis SC 2963; settings: Candida tropicalis S.C. No. 2963; F-4 agar; 10^3 CFU
Experimental: as §1, §2, §3

MIC [1]: 50 µg/mL (≈ 206 µM) | MIC [2]: 50 µg/mL (≈ 206 µM) | MIC [3]: 50 µg/mL (≈ 206 µM) | MIC [4]: 100 µg/mL (≈ 413 µM) | MIC [5]: 100 µg/mL (≈ 413 µM) | MIC [6]: 50 µg/mL (≈ 206 µM)
SMILES: C=C(C)C#Cc1cc(O)c(CC=C(C)C)cc1O [culpin, 2-(3-methyl-2-butenyl)-5-(3-methyl-3-buten-1-ynyl)-1,4-benzenediol]
